The test system of one data set is pepsin. Nature of the data set: In vitro digestion stability, pepsin. The format is in vitro ADME. The following applies: simulated gastrointestinal digestion, compared with before digestion, peptide 0.5 mg/mL (TEAC), 1.0 mg/mL (superoxide), n = 3. The text has this: (§1) According to the main components of human gastrointestinal digestive juice and digestive environment, a human gastrointestinal digestion simulation system was established to study the antioxidant activity changes of peptides after digestion by human gastrointestinal digestion simulation system. The method was according to the previously reported by Jang et al..
(§2) Peptides 2 and 4 synthesized in this study might be better antioxidants than the other peptides because of their high resistance to superoxide anion radical and high TEACs (Fig. 5) (P < 0.05). The peptide concentrations for the determination of superoxide anion radical scavenging activity and TEAC in the stability study (3.5 and 3.6) were chosen to be 1.0 and 0.5 mg/mL, respectively, according to the experimental results.

Another data set concerns chymotrypsin. Nature of the data set: In vitro digestion stability, chymotrypsin. The format is in vitro ADME. The following applies: simulated gastrointestinal digestion, individually or continuously, compared with before digestion, peptide 0.5 mg/mL (TEAC), 1.0 mg/mL (superoxide), n = 3.
Excerpt: as §1, §2

The subject of another data set is trypsin. Nature of the data set: In vitro digestion stability, trypsin. It is filed as in vitro ADME. The following applies: simulated gastrointestinal digestion, compared with before digestion, peptide 0.5 mg/mL (TEAC), 1.0 mg/mL (superoxide), n = 3.
Excerpt: as §1, §2

Data set [1] is described as follows: Temperature stability of antioxidant activity. Particulars: compared with the three other peptides; read-out superoxide scavenging and TEAC. The format is physicochemical. As for the experimental part: The antioxidant activities of purple wheat bran antioxidant peptides at different passivation temperatures for 60 min were studied. The detection method of antioxidant activities was shown in 2.4. Before the antioxidant activities were measured, the samples allowed to cool to room temperature (25 °C) and pH was adjusted to 7.0.
as §2

Data set [2] is described as follows: Superoxide anion radical scavenging activity assay (pyrogallol autoxidation method). The format is biochemical. Particulars: synthesized peptides, Tris-HCl pH 8.3, 320 nm, n = 3. As for the experimental part: Superoxide anion radical scavenging activity assay was measured using the pyrogallol autoxidation method with some modifications. Mix 1.6 mL of sample with an equal volume of 50 mM Tris–HCl buffer (pH 8.3). The mixture was incubated in a bath for 20 min, then 0.8 mL of 1.5 mM pyrogallic acid was added. Absorbance of the mixture was measured at 320 nm every 30 s for 5 min. For blank, 1.6 mL of Tris–HCl buffer was used instead of sample. Ascorbic acid and GSH were used as positive controls. Superoxide anion radical scavenging activity was calculated as: O2-clearancerate%=1-ΔODS/ΔODb×100%, Where,ΔODSandΔODb represented slope of absorbance line for sample and slope of absorbance line for blank.

A short description of data set [3]: Trolox equivalent antioxidant capacity (TEAC), ABTS radical scavenging. The format is biochemical. The following applies: synthesized peptides; PBS pH 7.4, 30 °C, 30 min, 734 nm; n = 3. As for the experimental part:
The experiment referred to methods of Costa and Xing and made appropriate modifications. This method used Trolox as the standard antioxidant and all reagents were prepared in 50 mmol/L phosphate buffered solution (pH 7.4). The specific operation was as follows: PBS (50 µL) solution (blank group), different concentrations of Trolox solution (standard control group) and sample solution to be tested (sample group) were added to a transparent 96-well microplate, and then 150 µL ABTS^+· was quickly added. The solution was shaken at 30 °C for 30 min and its absorbance was measured at 734 nm using a microplate scanning spectrophotometer (Multiskan FC, Thermo Fisher Scientific (Shanghai), China). ABTS radical scavenging activity was calculated as ABTS+·clearancerate%=1-ASample/ABlank×100

The source of these data is article PMC7533037, “Purification, structural analysis, and stability of antioxidant peptides from purple wheat bran” (BMC Chemistry, 2020).

Residues, ends and D or L forms follow the SMILES beside them. No end group written: not given here.

`N[C@@H](Cc1c[nH]c2ccccc12)C(=O)N[C@@H](Cc1ccccc1)C(=O)O` [peptide 5, Trp-Phe] (H-Trp-Phe-OH): the “TEAC and superoxide anion radical scavenging activity after digestion by pepsin” value in the data set on pepsin was “insignificant changes”. The “TEAC and superoxide anion radical scavenging activity after digestion by chymotrypsin” value in the data set on chymotrypsin was “significant reduction”.

For `N=C(N)NCCC[C@H](N)C(=O)N[C@@H](CC(N)=O)C(=O)N[C@@H](Cc1ccccc1)C(=O)O` [peptide 3, Arg-Asn-Phe] (H-Arg-Asn-Phe-OH), the “TEAC and superoxide anion radical scavenging activity after digestion by pepsin” value with pepsin is recorded as “insignificant changes”. In addition, the “TEAC and superoxide anion radical scavenging activity after digestion by trypsin” value in the data set with trypsin is given as “significantly declined”. Moreover, the “TEAC and superoxide anion radical scavenging activity after digestion by chymotrypsin” value in the data set on chymotrypsin is “significant reduction”.

Consider `N[C@@H](CO)C(=O)N[C@@H](CO)C(=O)N[C@@H](CS)C(=O)O` [peptide 4, Ser-Ser-Cys] (H-Ser-Ser-Cys-OH), for which the “temperature stability (overall)” value in data set [1] is “better temperature stability”. In the data set on pepsin, the “TEAC and superoxide anion radical scavenging activity after digestion by pepsin” value is “remained at the same levels”. Besides, in the data set with trypsin, the “TEAC and superoxide anion radical scavenging activity after digestion by trypsin” value is on record as “remained at the same levels”. For the same molecule, in the data set on chymotrypsin, the “TEAC and superoxide anion radical scavenging activity after digestion by chymotrypsin” value is “remained at the same levels”.

Consider “CGFPGHC (cysteine pairing not given here) [peptide 1, antioxidant peptide identified in F4-4 of purple wheat bran protein hydrolysate, synthesized by Fmoc solid phase method]”, for which the “IC50, superoxide anion radical scavenging” value in data set [2] was determined as 2898 µg/mL. In addition, in data set [3], the “IC50, TEAC (ABTS radical scavenging)” value was found to be 763 µg/mL. In addition, the “TEAC and superoxide anion radical scavenging activity after digestion by pepsin” value with pepsin is given as “insignificant changes”. Moreover, the “TEAC and superoxide anion radical scavenging activity after digestion by chymotrypsin” value with chymotrypsin is “significant reduction”.

As for `C[C@H](NC(=O)[C@@H](N)CCC(N)=O)C(=O)N[C@@H](CS)C(=O)O` [peptide 2, Gln-Ala-Cys] (H-Gln-Ala-Cys-OH), the “temperature stability (overall)” value in data set [1] is recorded as “better temperature stability”. Also, in the data set on pepsin, the “TEAC and superoxide anion radical scavenging activity after digestion by pepsin” value was “remained at the same levels”. In the data set on trypsin, the “TEAC and superoxide anion radical scavenging activity after digestion by trypsin” value is “remained at the same levels”. Moreover, the “TEAC and superoxide anion radical scavenging activity after digestion by chymotrypsin” value with chymotrypsin is given as “remained at the same levels”.
